Source: patent US6369050B1, “Antibacterial agents” (Fujisawa Pharmaceutical Co., Ltd., priority 1998, dated 2002)
Where two headings read alike, the source gives them in different places. Marks after values point to notes of the source that are not given here.

Experiments:
K. pneumoniae 15004 = assay: Mixed respiratory infection in mice, viable K. pneumoniae in the lung (Test Example 4); type: in vivo; conditions: oral, 2 days after infection
Procedure: (§1) ICR strain male mice (4 weeks old, 5 animals per group) given cyclophosphamide (200 mg/kg, ip) 4 days prior to infection were nasally infected with S. pneumoniae FP1906 (2.0×10^7 cfu/mouse) and K. pneumoniae 15004 (5.5×10^3 cfu/mouse). Each drug was orally administered three times (3, 18 and 26 hours after infection) and, at 2 days after infection, viable cells in the lung were counted.

S. pneumoniae FP1906 = assay: Mixed respiratory infection in mice, viable S. pneumoniae in the lung (Test Example 4); type: in vivo; conditions: oral, 2 days after infection
Procedure: as §1

K. pneumoniae = assay: Checkerboard method MIC, K. pneumoniae (Test Example 1); type: cell-based; conditions: for MIC: Klebsiella pneumoniae, antibiotic used alone, read-out: MIC, single use; for MIC, combined use: CFIX and AMPC used combinedly
Procedure: (§2) Checkerboard method (cf. Hideyo Yamaguchi: “Konnichi no Koseibusshitsu (Antibiotics of today)”, page 411, published by Nanzando)
(§3) The MIC of each antibiotic used singly and the MIC of each combination of antibiotics were determined by the standard method established by the Japan Society of Chemotherapy, using Mueller-Hinton agar medium (MHA, product of Difco) for M. catarrhalis and K. pneumoniae, 5% equine blood agar (MHA+5% equine blood) for S. pneumoniae, and MHA+5% equine blood (chocolate agar) for H. influenzae. A 100-fold dilution of an overnight culture of each bacterial strain was stamp-inoculated and, after 18 hours of incubation at 37° C. (in the case of S. pneumoniae and H. influenzae, in an atmosphere containing 5% carbon dioxide), the MIC was measured (in μg/ml)
(§4) The MIC's of two individual antibiotics and the MIC's of the two respective antibiotics used combinedly were determined by the checkerboard method and the fractional inhibitory concentration index (hereinafter, “FIC index”) was determined according to the equation shown below. [formula]
(§5) ao: MIC of antibiotic A used alone; b: MIC of antibiotic B used alone; a, b: MIC's of antibiotics A and B, respectively, when they are used combinedly.

[1] = tested on: penicillin G-resistant S. pneumoniae; assay: Checkerboard method MIC, penicillin G-resistant S. pneumoniae (Test Example 1); type: cell-based; conditions: for MIC: Streptococcus pneumoniae, antibiotic used alone, read-out: MIC, single use; for MIC, combined use: CFIX and AMPC used combinedly
Procedure: as §2, §3, §4, §5

| SMILES | Viable cells in the lung (logarithm), K. pneumoniae (K. pneumoniae 15004; 10 mg/kg three times) | Viable cells in the lung (logarithm), K. pneumoniae (K. pneumoniae 15004; 50 mg/kg three times) | Viable cells in the lung (logarithm), S. pneumoniae (S. pneumoniae FP1906; 10 mg/kg three times) | Viable cells in the lung (logarithm), S. pneumoniae (S. pneumoniae FP1906; 50 mg/kg three times) | MIC (K. pneumoniae; strain 15004) | MIC (K. pneumoniae; strain 15021) | MIC, combined use (K. pneumoniae; strain 15004) | MIC ([1]; strain FP1884) | MIC ([1]; strain FP1885) | MIC ([1]; strain FP1891) | MIC ([1]; strain FP1906) | MIC, combined use ([1]; strain FP1884) | MIC, combined use ([1]; strain FP1885) | MIC, combined use ([1]; strain FP1891) | MIC, combined use ([1]; strain FP1906) | MIC, combined use (K. pneumoniae; strain 15021) |
| --- | --- | --- | --- | --- | --- | --- | --- | --- | --- | --- | --- | --- | --- | --- | --- | --- |
| CC1(C)S[C@@H]2[C@H](NC(=O)[C@H](N)c3ccc(O)cc3)C(=O)N2[C@H]1C(=O)O [AMPC, amoxicillin] | 9.32^*# logarithm | 9.38^*# logarithm | 7.04 logarithm | 5.29^* logarithm | 100 µg/mL | 25 µg/mL | 50 µg/mL | 0.2 µg/mL | 0.78 µg/mL | 0.39 µg/mL | 0.76 µg/mL | 0.05 µg/mL | 0.39 µg/mL | 0.025 µg/mL | 0.2 µg/mL | – |
| C=CC1=C(C(=O)O)N2C(=O)[C@@H](NC(=O)/C(=N\OCC(=O)O)c3csc(N)n3)[C@H]2SC1 [CFIX, Cefixime] | 4.14 logarithm | 2.34 logarithm | 8.46^*# logarithm | 8.26^*# logarithm | 0.05 µg/mL | 0.025 µg/mL | ≦0.00313 μg/ml | 12.5 µg/mL | 6.25 µg/mL | 3.13 µg/mL | 12.5 µg/mL | 0.78 µg/mL | 0.1 µg/mL | 0.78 µg/mL | 1.56 µg/mL | 0.0125 µg/mL |
